According to US20080220056A1, “Treatment for liver disease” (UNIVERSITY OF SOUTHAMPTON, priority 2002, published 2008):

Columns and labels:
Assay type in all cases: cell-based
hepatic stellate cells = assay: Nerve growth factor induced apoptosis of hepatic stellate cells; details: NGF 100 ng/ml, serum-free; TIMP-1 142.5 ng/ml
Protocol: Apoptosis of hepatic stellate cells was induced by absolute serum deprivation, cycloheximide treatment (Issa et al., Gut (2001) 48: S48-S57), or exposure to nerve growth factor as previously described (Trim et al., Am. J. Pathol., (2000) 156, 1235-1243). Hepatic stellate cells were cultured in 24-well tissue culture plates. Rat and human hepatic stellate cells were exposed to proapoptotic stimuli with and without recombinant TIMP-1 (Biogenesis, Poole, UK) and other manipulations as detailed below. Following a 4 hour incubation at 37° C., nuclear morphology was assessed by adding acridine orange to each well (final concentration 1 μg/ml) and observing the cells under blue fluorescence. The total number of apoptotic bodies was counted, and any apoptotic bodies floating in the supernatant were included by racking up the objective lens. The total number of cells per field was counted, and an apoptotic index was calculated. Each condition was performed in duplicate, and three high power fields were counted for each well. […] To examine for autocrine effects, hepatic stellate cells were incubated for 18 hours with azide-free polyclonal neutralizing antibodies to TIMP-1 and a nonimmune IgG control (Santa Cruz Biotechnology, Inc., Santa Cruz, Calif.), and responses were assessed by acridine orange staining and counting. […]

rat hepatocytes [1] = assay: Rat hepatocyte viability by attachment and trypan blue exclusion; details: 50 μmol/L gliotoxin, four hours
Protocol: (§1) Rat hepatocytes were isolated by collagenase perfusion essentially as previously described. (Harvey et al., Biochemical J., (1998) 331:273-281). Hepatocytes were cultured as outlined for hepatic stellate cells except that they were initially seeded onto collagen coated plates in William's medium E supplemented with 10% fetal calf serum and 1 μg/mL insulin for the first 2 hours.
(§2) Cells were treated with gliotoxin dissolved in DMSO vehicle (added to medium from a 2000-fold molar concentrated stock). Control cells received DMSO vehicle only (i.e., 0.05% vol/vol). All other additions to culture medium were made from concentrated stocks dissolved in DMSO or by direct addition to culture medium. Protein contents of wells were determined using the Lowry assay (Lowry et al., J. Biol. Chem., (1951)193: 265-275).
The effect of various compounds on cell viability and attachment was determined. Viability of rat hepatocytes as judged by attachment and 0.1% (wt/vol) trypan blue exclusion after four hours treatment with: […]

[2] = system: rat hepatocytes in comparison to rat hepatic stellate cells; assay: Cell attachment (protein assay): gliotoxin doses killing rat hepatocytes versus hepatic stellate cells; details: attachment after four hours, in vitro
Protocol: as §1, §2
The necessary doses of gliotoxin required to kill rat hepatic stellate cells and hepatocytes were compared. Culture-activated (14-day) rat hepatic stellate cells or rat hepatocytes were treated with either 0.05% (vol/vol) DMSO or 1.5 μmol/L gliotoxin and cell attachment determined by direct assay of protein in each well after four hours as outlined in Materials and Methods. The results obtained are depicted in FIG. 3A and are expressed as the mean and standard deviation percentage attachment versus DMSO control for three separate experiments.

[3] = system: NF-kB DNA binding activity; assay: Electromobility shift assay for NF-kB DNA binding activity in rat hepatic stellate cells; details: activated rat HSC
Protocol: Crude high salt extractable nuclear protein was prepared from activated hepatic stellate cells for analysis of NF-kB DNA binding activity essentially as described (Elsharkawy et al., supra), aliquoted and stored at −80° C. until required. Extract protein concentrations were determined using the Lowry colorimetric assay (Lowry et al., supra) with bovine serum albumin as standard. A double stranded 5′ end labeled radiolabeled oligonucleotide [sense 5′-[…]-[…] (SEQ ID NO:1)] containing a consensus NF-kB DNA binding site as underlined (Baldwin et al., Annu. Rev. Immunol., (1996) 14:649-681) was used to determine NFkB DNA binding activity in crude nuclear extracts (Elsharkawy et al., supra).
The effect of gliotoxin on NF-kB activity in hepatic stellate cells was investigated. Culture-activated (14-day) rat hepatic stellate cells were incubated in the presence or absence of 10 ng/mL TNF-α fifteen minutes after addition of:
After a further 30 minutes, and before any significant morphologic changes, cells were washed with ice-cooled PBS, nuclear extracts prepared, and NF-kB DNA binding activity assessed by gel shift analysis. […] Each lane contained […] of protein and the results were the same for at least three separate experiments.

rat hepatocytes [4] = assay: DNA laddering in rat hepatocytes; details: four hours; 50 μmol/L gliotoxin, 200 μmol/L chlorpromazine, 200 μmol/L methapyrilene, 10 ng/mL TNF-α with cycloheximide
Protocol: Hepatic stellate cells cultured in 35-mm diameter dishes (Greiner) were harvested, pelleted by centrifugation and DNA fragmentation determined as outlined elsewhere (Elsharkawy et al., Hepatology (1999) 30:761-769). Propidium Iodide Flow-Activated Cell Sorting Analysis Detached cells were pelleted by centrifugation, washed in PBS, and resuspended in HYPO buffer (0.1% wt/vol) Na3Citrate and 0.1% (wt/vol) Triton™ X-100 containing […] propidium iodide and incubated for 1 hour. The cells were then analyzed by fluorescence-activated cell sorter (FACS) with a Becton Dickinson (San Jose, Calif.) FACScan instrument using a 488 nm excitation wavelength with a band pass filter set at 530 nm. Attached cells were scraped in HYPO buffer after washing cells with PBS.
DNA laddering was also used to compare the effect of gliotoxin, chlorpromazine, methapyrilene and also the combination of TNF-α with cycloheximide on hepatocytes and hepatic stellate cells.

[5] = system: rat hepatic stellate cells; assay: Trypan blue exclusion of treated rat hepatic stellate cells; details: rat HSC; 1.5 μmol/L gliotoxin or 200 μmol/L chlorpromazine

Row | Compound | apoptosis induced by exposure to NGF (hepatic stellate cells) | hepatocytes that do not exclude 0.1% (wt/vol) trypan blue (rat hepatocytes [1]) | hepatocyte attachment to the substratum / membrane integrity (rat hepatocytes [1]; 10 ng/mL TNF-α with 10 μmol/L cycloheximide) | higher concentrations required to kill rat hepatocytes in comparison to rat hepatic stellate cells [2] [fold] | TNF-α-inducible NF-kB DNA binding activity ([3]; 10 ng/mL TNF-α, same concentrations as for constitutive activity) | constitutive NF-kB DNA binding activity ([3]; gliotoxin 1.5 μmol/L, N-acetyl cysteine 5 mM, calpain inhibitor 1 50 μM, dexamethasone 0.5 μm, pentoxyfilline 3.6 mM) | cleavage of hepatocyte DNA to a nucleosomal ladder (rat hepatocytes [4]) | 0.1% (wt/vol) trypan blue exclusion (membrane integrity) [5]
1 | TIMP-1: recombinant tissue inhibitor of matrix metalloproteases 1 (Biogenesis) | significantly inhibited | – | – | – | – | – | – | –
2 | CN1C(=O)[C@]23CC4=CC=C[C@H](O)[C@H]4N2C(=O)[C@@]1(CO)SS3 [gliotoxin] | – | approximately 90% | significant reductions in cell attachment to the substratum | 10 to 100 | inhibits TNF-α-inducible NF-kB DNA binding activity | does not have a marked inhibitory effect | only hepatocytes treated with TNF-α and cycloheximide cleaved their DNA to a nucleosomal ladder | detached cells that excluded 0.1% (wt/vol) trypan blue
